Where a name gives a salt, the structure may show the parent alone. Read-outs that look alike come from different tables or passages of the source.
Tests used:
[1] = test system: Murine L1210 leukemia cells; assay: L1210 cell growth inhibition (IC50); assay type: cell-based; settings: Mus musculus
Experimental: Murine L1210 leukemia cells were maintained in logarithmic growth as a suspension culture in RPMI-1640 medium (Gibco, Grand Island, N.Y.) containing 10% fetal bovine serum (Gibco), 2% HEPES-MOPS buffer, 1 mM L-glutamine (Gibco), and 1 mM aminoguanidine at 37° C. in a water-jacketed 5% CO2 incubator.
Cells were grown in 25 cm^2 tissue culture flasks in a total volume of 10 mL. Cultures were treated during logarithmic growth (0.5−1.0×10^5 cells/mL) with the compounds of interest, reseeded, and incubated as described in Bergeron, R. J., Müller, R., Bussenius, J., McManis, J. S., Merriman, R. L., Smith, R. E., Yao, H., Weimar, W. R., “Synthesis and Evaluation of Hydroxylated Polyamine Analogues as Antiproliferatives,” J. Med. Chem 43: 224-235 (2000). Cell counting and calculation of percent of control growth were also carried out as described in Bergeron, et al. The IC50 is defined as the concentration of compound necessary to reduce cell growth to 50% of control growth after defined intervals of exposure.

polyamine transporter = assay: Competition with [3H]SPD for uptake into L1210 cells (polyamine transporter, Ki); assay type: cell-based, murine; settings: for Ki: L1210 cell suspensions, read-out: Ki, competition with [3H]SPD for the polyamine transport apparatus
Excerpt: The compounds of interest were studied for their ability to compete with [^3H]SPD for uptake into L1210 leukemia cell suspensions in vitro as described in Bergeron, R. J., Hawthorne, T. R., Vinson, J. R. T., Beck, D. L., Jr., Ingeno, M. J., “Role of the Methylene Backbone in the Antiproliferative Activity of Polyamine Analogues on L1210 Cells,” Cancer Res. 49: 2959-2964 (1989); Bergeron, R. J., McManis, J. S., Liu, C. Z., Feng, Y., Weimar, W. R., Luchetta, G. R., Wu, Q., Ortiz-Ocasio, J., Vinson, J. R. T., Kramer, D., Porter, C., “Antiproliferative Properties of Polyamine Analogues: A Structure-Activity Study,” J. Med. Chem. 37: 3464-3476 (1994); and Bergeron, R. J., Weimar, W. R., Wu, Q., Feng, Y., McManis, J. S., “Polyamine Analogue Regulation of NMDA MK-801 Binding: A Structure-Activity Study,” J. Med. Chem. 39: 5257-5266 (1996). Briefly, cell suspensions were incubated in 1 mL of culture medium containing radiolabeled SPD alone or radiolabeled SPD in the presence of graduated concentrations of a chelator or derivative. At the end of the incubation period, the tubes were centrifuged; the pellet was washed, digested, and neutralized prior to scintillation counting. Lineweaver-Burk plots indicated a simple competitive inhibition with respect to SPD.
The molecules of interest were studied for their ability to compete with [^3H]SPD for uptake into L1210 leukemia cell suspensions in vitro. Briefly, cell suspensions were incubated in 1 mL of culture medium containing radiolabeled SPD alone or radiolabeled SPD in the presence of graduated concentrations of chelator or conjugate. At the end of the incubation period, the tubes were centrifuged; the pellet was washed, digested, and neutralized prior to scintillation counting. Lineweaver-Burk plots indicated simple competitive inhibition with respect to SPD.

[2] = test system: polyamine pools in L1210 cells; assay: Effect on native polyamine pools in L1210 cells (HPLC); assay type: cell-based, murine; settings: for activity at 0.2 µM: Mus musculus, L1210
Experimental: At the end of the treatment period, cell suspensions were sampled, washed three times in ice-cold, incomplete medium, and pelleted for extraction using 0.6 N perchloric acid, then freeze-fractured in liquid nitrogen/hot water three times. Each supernatant was frozen at −20° C. until analysis of polyamine content by HPLC. […] The buffer consisted of potassium phosphate (10 mM) and EDTA (2 mM), pH 2.9.

[3] = test system: Ornithine decarboxylase (ODC); assay: ODC activity in treated L1210 cells; assay type: cell-based, murine
Experimental: (§1) Ornithine decarboxylase (ODC) and Adenosylmethionine decarboxylase (AdoMet DC) activities were determined according to the procedures of Seely, J. E., Pegg, A. E., “Ornithine Decarboxylase (Mouse Kidney),” Methods Enzymol. 94: 158-161 (1983) and Pegg, A. E., Pösö, H., “S-Adenosylmethionine Decarboxylase (Rat Liver),” Methods Enzymol. 94: 234-239 (1983), respectively, on the basis of quantitation of ^14CO2 released from [^14C]carboxyl-labeled L-ornithine or S-adenosyl-L-methionine. Included in each assay were untreated L210 cells as negative controls as well as cells treated with DEHSPM, a drug having a known reproducible effect on each enzyme, as positive controls.

[4] = test system: Adenosylmethionine decarboxylase (AdoMet DC); assay: AdoMetDC activity in treated L1210 cells; assay type: cell-based, murine
Experimental: as §1

[5] = test system: Spermidine/spermine N^1-acetyl transferase (SSAT); assay: SSAT activity in treated L1210 cells; assay type: cell-based, murine
Excerpt: Spermidine/spermine N^1-acetyl transferase (SSAT) activity was based on quantitation of [^14C]-N^1-acetylspermidine formed by acetylation of SPD with [^14C]-acetyl coenzyme A according to the method of Libby, P. R., Bergeron, R. J., Porter, C. W., “Structure-Function Correlations of Polyamine Analog-Induced Increases in Spermidine/Spermine Acetyltransferase Activity,” Biochem. Pharmacol. 38: 1435-1442 (1989). Cells treated with DENSPM were positive controls.

L1210 leukemia cells = assay: Intracellular concentration / accumulation of analogue in L1210 cells (HPLC); settings: for intracellular concentration over extracellular treatment concentration: 0.2 μM extracellular
Experimental: At the end of the treatment period, cell suspensions were sampled, washed three times in ice-cold, incomplete medium, and pelleted for extraction using 0.6 N perchloric acid, then freeze-fractured in liquid nitrogen/hot water three times.
During logarithmic growth, cells were treated with the compounds. At the end of the treatment period, cell suspensions were sampled, washed three times in ice-cold, incomplete medium, and pelleted for extraction using 0.6 N perchloric acid, then freeze-fractured in liquid nitrogen/hot water three times. Each supernatant was frozen at −20° C. until analysis of analogue content by HPLC,
Analytical separation was performed on a Waters Symmetry C18 column (250 mm×4.6 mm, 5 μm) with a guard column using a Rainin Instrument Company HPLC system. The buffer employed was sodium octanesulfonate (2.5 mM) in potassium phosphate (25 mM), pH 3.0. Mobile phase A consisted of 5% CH3CN, 95% buffer; mobile phase B consisted of 60% CH3CN, 40% buffer. The solvent gradient program employed a linear gradient that increased from 20% mobile phase B to 40% mobile phase B over 40 min and a 5-min ramp to 100% B over 5 min. Post-column derivatization used a boric acid buffer system (H3BO3, 3.1% w/v; KOH, 2.6% w/v; 2-mercaptoethanol, 0.6% v/v) that contained o-phthaldialdehyde (10 mL of a 4% w/v solution in CH3OH per L of buffer). The flow rate was 0.4 mL/min, isocratic; UV detection (λex, 340 nm; λem, 445 nm) was utilized.
Analytical separation was performed on a reversed-phase Supelco Discovery RP Amide C16 column (150×4.6 mm, 5 μm) on the system described above, and UV detection was at 300 nm. The mobile phases were pumped at a flow rate of 1.5 mL/min. The buffer and mobile phases A and B were the same as described above. The solvent gradient program employed an initial 10-min isocratic portion with 5% mobile phase B (95% A), followed by a linear gradient increase to 80% mobile phase B at 35 min, a 5-min ramp to 100% B held for 10 min, and ramping back to 5% mobile phase B for 8 min (58-65 min total).
In both cases, the concentrations were calculated from the peak area fitted to calibration curves by nonweighted least squares linear regression with Rainin Dynamax HPLC Method Manager software (Rainin Instrument Co.).

[6] = test system: chelator-promoted iron excretion; assay: Iron clearance in the bile duct-cannulated rat; assay type: in vivo; settings: for iron-clearing efficiency: bile duct-cannulated rat
Experimental: In this model, chelator-promoted iron excretion is measured in both the bile and the urine. Furthermore, because the method allows for collection of multiple bile samples, the kinetics of iron excretion can be determined. In each instance, the drugs were given subcutaneously. L1 and its SPM conjugate (4 and 5) were administered at a dose of 450 μmol/kg and (S)-4′-(HO)-DADFT (8) and its NSPD conjugates (9 and 10) were administered at a dose of 300 μmol/kg, i.e., all at equivalent iron-binding capacity.

[7] = 48 h exposure, read-out: IC50, 48 h
[8] = 96 h exposure, read-out: IC50, 96 h
[9] = L1210 cells, treatment concentration 100 μM
[10] = rat, 450 μmol/kg subcutaneously

Cc1c(O)c(=O)ccn1CCCNCCCCNCCCN (as salt: hydrochloride) [Compound 3, 1-(12-Amino-4,9-diazadodecyl)-2-methyl-3-hydroxy-4(1H)-pyridinone Tetrahydrochloride]
melting point: 216 to 218 °C

CC(=O)NCCCNCCCCNCCCN [AcSPM, N^1-Acetylspermine]
IC50 [1, 7]: > 100000 nM
IC50 [1, 8]: > 100000 nM
Ki (polyamine transporter): 10 µM
putrescine, percent of control [2, 9]: substantial effect
spermidine, percent of control [2, 9]: slight decrease
spermine, percent of control [2, 9]: increased
ODC activity, % of control [3]: 25±11 % of control
AdoMetDC activity, % of control [4]: 86±11 % of control
SSAT activity, % of control [5]: 180±11 % of control
intracellular concentration (analogue accumulation) (L1210 leukemia cells; treatment concentration 100 μM): 1.62 mM

Cc1c(O)c(=O)ccn1CCCNCCCCNCCCN [Compound 3, 1-(12-Amino-4,9-diazadodecyl)-2-methyl-3-hydroxy-4(1H)-pyridinone Tetrahydrochloride]
IC50 [1, 7]: 200 nM
IC50 [1, 8]: 200 nM
activity at 0.2 µM ([2]; read-out: putrescine, percent of control): 33%
activity at 0.2 µM ([2]; read-out: spermidine, percent of control): 64%
activity at 0.2 µM ([2]; read-out: spermine, percent of control): 139%
ODC activity, % of control [3]: 20±4 % of control
AdoMetDC activity, % of control [4]: 77±11 % of control
SSAT activity, % of control [5]: 275±6 % of control
iron-clearing efficiency ([6]; 450 μmol/kg subcutaneously): 1.8±0.9%
share of excreted iron in the bile [6, 10]: 53%
share of excreted iron in the urine [6, 10]: 47%
intracellular concentration relative to that attained by parent ligand L1 (L1210 leukemia cells): several hundred times higher
intracellular concentration over extracellular treatment concentration (L1210 leukemia cells): more than 1900 fold
intracellular concentration over extracellular treatment concentration (L1210 leukemia cells; listed as 1-(12-amino-4,9-diazadodecyl)-2-methyl-3-hydroxy-4-(1H)-pyridinone): 1900 fold
intracellular level (L1210 leukemia cells; extracellular 0.2 μM): 390 µM
intracellular concentration (analogue accumulation) (L1210 leukemia cells; treatment concentration 0.2 μM): 0.39 mM

COC(=O)c1ccc(C(=O)NCCCNCCCCN)cc1 [Compound 6, N^1-terephthaloylspermidine methyl ester]
Ki (polyamine transporter): 3.1 µM

NCCCCNCCCNC(=O)c1ccc(C(=O)O)cc1 [Compound 7, N^1-terephthaloylspermidine]
Ki (polyamine transporter): 27 µM
fold increase of Ki of the free acid over the corresponding ester (polyamine transporter; L1210 cells): 9 fold
intracellular level (L1210 leukemia cells; extracellular 100 μM): < 70 µM

C[C@]1(C(=O)O)CSC(c2ccc(O)cc2O)=N1 [Compound 8, 2-(2,4-dihydroxyphenyl)-4-(S)-methylthiazoline-4-carboxylic acid]
IC50 [1, 7]: 19000 nM
IC50 [1, 8]: 20000 nM
iron-clearing efficiency ([6]; 300 μmol/kg subcutaneously): 1.1±0.6%
intracellular level (L1210 leukemia cells; extracellular 100 μM): ≤ 50 µM

CCOC(=O)[C@@]1(C)CSC(c2ccc(OCCCCNCCCNCCCN)cc2O)=N1 [Compound 9]
IC50 [1, 7]: 1500 nM
IC50 [1, 8]: 1500 nM
Ki (polyamine transporter): 5.7 µM
iron-clearing efficiency ([6]; 300 μmol/kg subcutaneously): 13.6±3.3%
biliary ferrokinetics (in words) ([6]; rat, 300 μmol/kg subcutaneously): protracted biliary iron clearance
intracellular level (L1210 leukemia cells; extracellular 100 μM): 947 ± 110 µM

— US20080096974A2, “Polyamine-Metal Chelator Conjugates” (University of Florida Research Foundation, Inc., priority 2003, published 2008)
